From patent publication US9132118B2, “Taxane analogs for the treatment of brain cancer” (Tapestry Pharmaceuticals, Inc., priority 2007, dated 2015)

Key:
[1] = system: human U251 (glioblastoma) CNS tumor cells
Description: Tumor Model: Each animal was implanted with one million U251 human CNS tumor cells from an in vitro cell line by ic injection with a 25 gauge needle. The day of tumor implantation (May 24, 2006) was designated as day 0. A sufficient number of mice were implanted so that animals with body weights in a range as narrow as possible were selected for the trial on the day of treatment initiation (day 1 after tumor implantation). Animals were randomly assigned to the treatment groups and individually identified by earmark codes.
A portion of this solution was then diluted with the complete vehicle to achieve the lower dosing concentration of 1.2 mg/mL. […] Temozolomide (Temodar, Schering Corporation) was prepared on each day of injection in Klucel+tween 80 at a concentration of 4 mg/mL. Temozolomide was administered within 5 minutes of formulation on the basis of exact body weight using a volume of 0.2 mL/10 g of body weight.
Data Collection: Animal health surveillance was conducted and mortality data were collected daily. The animals were weighed twice weekly starting with the first day of treatment.
Study Duration: The study was terminated 100 days after tumor implantation. Any animal found moribund or whose body weight dropped below 14 g was euthanized prior to study termination.
Parameters Evaluated: Number of 100-day survivors, median day of death, and the increase in lifespan based on median day of death and expressed as a percentage (% ILS), median survival time and the % ILS based on median survival time.
Administration of the Ringer's solution was initiated when animal body weights dropped by greater than 10% and continued until the animal recovered, died, or was euthanized.

[2] = system: bovine microtubule protein (tubulin plus microtubule associated proteins); assay: In vitro ED50 MT polymerization study (DAPI fluorescence tubulin assay); type: biochemical; conditions: for ED50 Compound/ED50 Paclitaxel: ratio of tubulin polymerization ED50 values; for EC50: tubulin polymerization, 37° C. 30 minutes, percent of maximum assembly at 25 μM paclitaxel
Protocol: In this tubulin binding assay, microtubule protein (MTP) is used as a substrate. The assay contains bovine tubulin plus microtubule associated proteins (MAP). MTP is polymerized into microtubules in the presence of DAPI (4′,6′-diamidino-2-phenylindole), a fluorescent compound. DAPI binds to tubulin; when microtubules are formed and there is an enhancement of fluorescence. The microtubule formation is measured as a function of time, using a fluorescence plate reader. […] The method used is based on the procedure published by Donna M. Barron, et al, “Fluorescence-based high-throughput assay for antimicrotuble drugs” Analytical Biochemistry, 315: 49-56, 2003, which is incorporated by reference in its entirety. The excitation wavelength, in that assay, was set at 370 nm and the emission wavelength was set at 450 nm for the DAPI experiments.
A Bio-Tek FL 600 microplate Fluorescence Reader was used to measure the relative level of fluorescence in the DAPI assay.
Assays were conducted in 96-well plates. […] The final DMSO concentration was 4%. The plates were incubated at 37° C. for 30 minutes and read in a fluorescence plate reader using an excitation wavelength of 360 nm and an emission wavelength of 460 nm. Fluorescence values were corrected for the sample without compound. […] Experiments were done twice in triplicate. Results were subsequently combined and fit to a non-linear regression program.

[3] = temozolomide 80 mg/kg/dose po q4d×3

| Compound | ILS ([1]; Group 4: TMZ 80 mg/kg, po. QD1, 5, 9) [%] | loss in mean body weight [1, 3] [%] | treatment-related deaths (in words) [1, 3] | ED50 Compound/ED50 Paclitaxel [2] | EC50 [2] [µM] |
| --- | --- | --- | --- | --- | --- |
| Cn1nnc2c(C(N)=O)ncn2c1=O [Temozolomide, reference compound] | 380 | 8 | without treatment-related deaths |  |  |
| CC(=O)O[C@@]12CO[C@@H]1C[C@H](O)[C@@]1(C)C(=O)[C@H](O)C3=C(C)[C@@H](OC(=O)[C@H](O)[C@@H](NC(=O)OC(C)(C)C)c4ccccc4)C[C@@](O)([C@@H](OC(=O)c4ccccc4)[C@H]21)C3(C)C [Docetaxel, docetaxel] |  |  |  | 1.07 | 3.18 ± 0.45 |
| C/C(=C\c1csc(C)n1)[C@@H]1C[C@@H]2O[C@]2(C)CCC[C@H](C)[C@H](O)[C@@H](C)C(=O)C(C)(C)[C@@H](O)CC(=O)O1 [Epothilone B] |  |  |  | 1.11 | 3.31 ± 0.51 |
